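Protocol summary: plate cells (96-well), add compound at 5 concentrations, incubate 48 h, interpolate endpoints linearly. Abbreviation: GI50, concentration required for 50% inhibition of growth.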 Activity calls are given as the source filed them. Cut-off read from the data, not from the text of the source: active = GI50 up to about 1.1 µM and inactive = higher.
What was measured:
Test in all cases: NCI anticancer screen, dose series, 48 h
[1] = test system: UACC-62
[2] = test system: SK-OV-3
[3] = test system: SK-MEL-2
[4] = test system: DLD-1
[5] = test system: KM12
[6] = test system: SW-620
[7] = test system: SK-MEL-5
[8] = test system: Malme-3M
[9] = test system: MOLT-4
[10] = test system: OVCAR-3
[11] = test system: CAKI-1
[12] = test system: 786-0
[13] = test system: IGROV-1
[14] = test system: NCI-H23
[15] = test system: UACC-257
[16] = test system: RPMI-8226
[17] = test system: COLO 205
[18] = test system: SF-539
[19] = test system: SK-MEL-28
[20] = test system: Hs-578T

Measured: GI50

CCc1ccccc1NC(=O)CCc1nnc(S)[nH]1
inactive: [1] > 100 µM | [2] > 100 µM | [3] > 100 µM | [4] > 100 µM | [5] > 100 µM | [6] > 100 µM | [7] > 100 µM | [8] > 100 µM | [9] > 100 µM | [10] > 100 µM | [11] > 100 µM | [12] > 100 µM | [13] > 100 µM | [14] > 100 µM | [15] > 100 µM | [16] > 100 µM | [17] > 100 µM | [18] > 100 µM | [19] > 100 µM

O=S(=O)(c1ccccc1)N1N=C2c3ccccc3CCC[C@H]2C1c1ccccc1 (stereo partly drawn)
inactive: [1] > 87.1 µM | [2] 34.2 µM | [3] > 100 µM | [4] > 100 µM | [5] > 92.3 µM | [6] > 100 µM | [7] > 100 µM | [8] > 100 µM | [9] > 87.7 µM | [10] > 100 µM | [11] > 100 µM | [12] > 100 µM | [13] > 100 µM | [14] > 100 µM | [15] > 100 µM | [16] > 100 µM | [17] > 100 µM | [18] > 100 µM | [19] > 100 µM

COc1ccc(/C=C(\Cl)c2ccc(OC)c(OC)c2)cc1OC
inactive: [1] > 100 µM | [2] > 100 µM | [20] > 100 µM | [3] > 100 µM | [4] > 100 µM | [5] > 100 µM | [6] > 100 µM | [7] > 100 µM | [8] > 100 µM | [9] > 100 µM | [10] > 100 µM | [11] > 100 µM | [12] > 100 µM | [13] > 100 µM | [14] > 100 µM | [15] > 100 µM | [16] > 100 µM | [17] > 100 µM | [18] > 100 µM | [19] > 100 µM

CSc1nc(NC2OCC(OC(C)=O)C(OC(C)=O)C2OC(C)=O)c(/N=C\C=N\c2c(NC3OCC(OC(C)=O)C(OC(C)=O)C3OC(C)=O)nc(SC)[nH]c2=O)c(=O)[nH]1 (stereo not drawn)
inactive: [1] > 100 µM | [2] 28.9 µM | [20] 42 µM | [3] > 100 µM | [4] > 100 µM | [5] > 100 µM | [6] > 100 µM | [7] > 100 µM | [8] > 100 µM | [9] > 100 µM | [10] > 100 µM | [11] > 100 µM | [12] 30.1 µM | [13] > 93.1 µM | [14] > 91 µM | [15] > 100 µM | [16] > 100 µM | [17] > 100 µM | [18] 43.7 µM | [19] > 100 µM

From ChEMBL document CHEMBL1201862, “PubChem BioAssay data set” (2004)
